Laboratory results: US6737383B1, “Herbicidal oxadiazolidines” (priority 1999, dated 2004)

Legend:
velvetleaf = assay: Test B pre/postemergence velvetleaf; assay type: in vivo, Abutilon theophrasti
Procedure, shortened: (§1)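 Herbicidal effect was estimated by eye on a ten-point control scale after plants spent twelve to sixteen days in a greenhouse following soil or foliar treatment. Foliar sprays targeted plants at one to four leaves; all doses were formulated in a non-phytotoxic solvent with surfactant.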

pigweed = assay: Test B pre/postemergence pigweed; assay type: in vivo, Amaranthus retroflexus
Procedure, shortened: as §1

cocklebur = assay: Test B pre/postemergence cocklebur; assay type: in vivo, Xanthium strumarium
Procedure, shortened: as §1

rape = assay: Test B pre/postemergence rape; assay type: in vivo, Brassica napus
Procedure, shortened: as §1

wheat = assay: Test B pre/postemergence wheat; assay type: in vivo, Triticum aestivum
Procedure, shortened: as §1

purple nutsedge = assay: Test B pre/postemergence purple nutsedge; assay type: in vivo, Cyperus rotundus
Procedure, shortened: as §1

blackgrass = assay: Test B pre/postemergence blackgrass; assay type: in vivo, Alopecurus myosuroides
Procedure, shortened: as §1

surinam grass = assay: Test B pre/postemergence surinam grass; assay type: in vivo, Brachiaria decumbens
Procedure, shortened: as §1

soybean = assay: Test B pre/postemergence soybean; assay type: in vivo, Glycine max
Procedure, shortened: as §1

bamyardgrass = assay: Test B flood test barnyardgrass; assay type: in vivo, Echinochloa crus-galli
Procedure, shortened: (§2)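 Each value is a visual injury score relative to controls, with 10 meaning complete control and 0 no effect. Evaluation took place twelve to sixteen days after the 2-leaf-stage plants were treated and kept in the greenhouse.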

bedstraw = assay: Test B pre/postemergence bedstraw; assay type: in vivo, Galium aparine; details: Postemergence; for Bedstraw plant response rating: scale of 0 to 10, 0 is no effect, 10 is complete control
Procedure, shortened: as §1

giant foxtail = assay: Test B pre/postemergence giant foxtail; assay type: in vivo, Setaria faberii
Procedure, shortened: as §1

smallflower flatsedge = assay: Test B flood test smallflower flatsedge; assay type: in vivo, Cyperus difformis
Procedure, shortened: as §2

rice = assay: Test B flood test rice; assay type: in vivo, Oryza sativa
Procedure, shortened: as §2

duck salad = assay: Test B flood test duck salad; assay type: in vivo, Heteranthera limosa
Procedure, shortened: as §2

corn = assay: Test B pre/postemergence corn; assay type: in vivo, Zea mays
Procedure, shortened: as §1

morningglory = assay: Test B pre/postemergence morningglory; assay type: in vivo, Ipomoea hederacea
Procedure, shortened: as §1

sugar beet = assay: Test B pre/postemergence sugar beet; assay type: in vivo, Beta vulgaris
Procedure, shortened: as §1

wild oat = assay: Test B pre/postemergence wild oat; assay type: in vivo, Avena fatua
Procedure, shortened: as §1

crabgrass = assay: Test B pre/postemergence crabgrass; assay type: in vivo, Digitaria sanguinalis
Procedure, shortened: as §1

[1] = Postemergence, Rate 125 g/ha, scale of 0 to 10 where 0 is no effect and 10 is complete control
[2] = Postemergence, Rate 250 g/ha, scale of 0 to 10, 0 is no effect, 10 is complete control
[3] = Postemergence, Rate 500 g/ha, scale of 0 to 10 where 0 is no effect and 10 is complete control
[4] = Preemergence, Rate 62 g/ha, scale 0 to 10 (0 no effect, 10 complete control)
[5] = Preemergence, Rate 125 g/ha, scale of 0 to 10 where 0 is no effect and 10 is complete control
[6] = Preemergence, Rate 500 g/ha, scale of 0 to 10 where 0 is no effect and 10 is complete control
[7] = Postemergence, Rate 62 g/ha, scale of 0 to 10, 0 is no effect, 10 is complete control
[8] = Rate 62 g/ha, flood test species, Pre-emergence, visual evaluation after twelve to sixteen days
[9] = Rate 125 g/ha, under heading Pre-emergence, flood test species, visual evaluation after twelve to sixteen days
[10] = Rate 250 g/ha, Pre-emergence (flood test species), scale 0 to 10, 0 is no effect, 10 is complete control
[11] = Rate 500 g/ha, Pre-emergence section of Table B, 0 to 10 scale (0 no effect, 10 complete control)

## CC(C)N(C(=O)n1oc(=O)n(CC(=O)N(C)C)c1=O)c1ccc(F)cc1 [Compound 586]
velvetleaf; [1]
  Plant response rating, Velvetleaf: 0
velvetleaf; [2]
  Velvetleaf plant response rating: 0
velvetleaf; [3]
  Plant response rating, Velvetleaf: 1
velvetleaf; [4]
  Velvetleaf plant response rating: 0
velvetleaf; [5]
  Velvetleaf plant response rating: 0
velvetleaf; [6]
  Velvetleaf plant response rating: 7
pigweed; [1]
  Plant response rating, Redroot pigweed: 0
pigweed; [2]
  Redroot pigweed plant response rating: 0
pigweed; [3]
  Plant response rating, Redroot pigweed: 2
pigweed; [4]
  Redroot pigweed plant response rating: 0
pigweed; [5]
  Redroot pigweed plant response rating: 8
pigweed; [6]
  Redroot pigweed plant response rating: 10
cocklebur; [7]
  Cocklebur plant response rating: 0
cocklebur; [1]
  Plant response rating, Cocklebur: 0
cocklebur; [2]
  Cocklebur plant response rating: 0
cocklebur; [3]
  Plant response rating, Cocklebur: 0
cocklebur; [4]
  Cocklebur plant response rating: 0
cocklebur; [5]
  Cocklebur plant response rating: 0
cocklebur; Preemergence, Rate 250 g/ha
  Cocklebur plant response rating (0 to 10 scale): 0
cocklebur; [6]
  Cocklebur plant response rating: 0
rape; [7]
  Rape plant response rating: 0
rape; [1]
  Plant response rating, Rape: 0
rape; [2]
  Rape plant response rating: 0
rape; [3]
  Plant response rating, Rape: 0
rape; [4]
  Rape plant response rating: 0
rape; [5]
  Rape plant response rating: 0
rape; [6]
  Rape plant response rating: 4
wheat; [1]
  Plant response rating, Wheat: 0
wheat; [2]
  Wheat plant response rating: 0
wheat; [3]
  Plant response rating, Wheat: 0
wheat; [4]
  Wheat plant response rating: 0
wheat; [5]
  Wheat plant response rating: 0
wheat; [6]
  Wheat plant response rating: 8
Purple nutsedge; [7]
  Nutsedge plant response rating: 0
Purple nutsedge; [1]
  Plant response rating, Nutsedge: 0
Purple nutsedge; [2]
  Nutsedge plant response rating: 0
Purple nutsedge; [3]
  Plant response rating, Nutsedge: 0
Purple nutsedge; [4]
  Nutsedge plant response rating: 0
Purple nutsedge; [5]
  Nutsedge plant response rating: 0
Purple nutsedge; [6]
  Nutsedge plant response rating: 2
blackgrass; [7]
  Blackgrass plant response rating: 0
blackgrass; [1]
  Plant response rating, Blackgrass: 1
blackgrass; [2]
  Blackgrass plant response rating: 3
blackgrass; [3]
  Plant response rating, Blackgrass: 8
blackgrass; [4]
  Blackgrass plant response rating: 3
blackgrass; [5]
  Blackgrass plant response rating: 7
blackgrass; Preemergence, Rate 250 g/ha
  Blackgrass plant response rating (0 to 10 scale): 9
blackgrass; [6]
  Blackgrass plant response rating: 10
Surinam grass; [7]
  B. signalgrass plant response rating: 0
Surinam grass; [1]
  Plant response rating, B. signalgrass: 0
Surinam grass; [2]
  B. signalgrass plant response rating: 3
Surinam grass; [3]
  Plant response rating, B. signalgrass: 7
Surinam grass; [4]
  B. signalgrass plant response rating: 0
Surinam grass; [5]
  B. signalgrass plant response rating: 5
Surinam grass; Preemergence, Rate 250 g/ha
  B. signalgrass plant response rating (0 to 10 scale, 0 is no effect, 10 is complete control): 8
Surinam grass; [6]
  B. signalgrass plant response rating: 10
soybean; [1]
  Plant response rating, Soybean: 3
soybean; [2]
  Soybean plant response rating: 3
soybean; [3]
  Plant response rating, Soybean: 3
soybean; [4]
  Soybean plant response rating: 0
soybean; [5]
  Soybean plant response rating: 0
soybean; [6]
  Soybean plant response rating: 0
bamyardgrass; [8]
  Plant response rating, Barnyardgrass (0 to 10 scale, 0 is no effect, 10 is complete control): 0
bamyardgrass; [9]
  Barnyardgrass plant response rating (0 to 10 scale, 0 is no effect, 10 is complete control): 0
bamyardgrass; [10]
  Barnyardgrass plant response rating: 0
bamyardgrass; [11]
  Barnyardgrass plant response rating: 0
bedstraw; Rate 62 g/ha
  Bedstraw plant response rating: 0
bedstraw; Rate 125 g/ha, scale of 0 to 10 where 0 is no effect and 10 is complete control
  Plant response rating, Bedstraw: 0
bedstraw; Rate 250 g/ha
  Bedstraw plant response rating: 0
Giant foxtail; [7]
  Giant foxtail plant response rating: 2
Giant foxtail; [1]
  Plant response rating, Giant foxtail: 2
Giant foxtail; [2]
  Giant foxtail plant response rating: 8
Giant foxtail; [3]
  Plant response rating, Giant foxtail: 9
Giant foxtail; [4]
  Giant foxtail plant response rating: 9
Giant foxtail; [5]
  Giant foxtail plant response rating: 10
Giant foxtail; [6]
  Giant foxtail plant response rating: 10
Smallflower flatsedge; [8]
  Plant response rating, S. Flatsedge (0 to 10 scale, 0 is no effect, 10 is complete control): 0
Smallflower flatsedge; [9]
  S. Flatsedge plant response rating (0 to 10 scale, 0 is no effect, 10 is complete control): 0
Smallflower flatsedge; [10]
  S. Flatsedge plant response rating: 0
Smallflower flatsedge; [11]
  S. Flatsedge plant response rating: 0
rice; [8]
  Plant response rating, Rice (0 to 10 scale, 0 is no effect, 10 is complete control): 0
rice; [9]
  Rice plant response rating (0 to 10 scale, 0 is no effect, 10 is complete control): 0
rice; [10]
  Rice plant response rating: 0
rice; [11]
  Rice plant response rating: 0
Duck salad; [8]
  Plant response rating, Ducksalad (0 to 10 scale, 0 is no effect, 10 is complete control): 0
Duck salad; [9]
  Ducksalad plant response rating (0 to 10 scale, 0 is no effect, 10 is complete control): 0
Duck salad; [10]
  Ducksalad plant response rating: 0
Duck salad; [11]
  Ducksalad plant response rating: 0
corn; [7]
  Corn plant response rating: 0
corn; [1]
  Plant response rating, Corn: 0
corn; [2]
  Corn plant response rating: 2
corn; [3]
  Plant response rating, Corn: 3
corn; [4]
  Corn plant response rating: 0
corn; [5]
  Corn plant response rating: 0
corn; Preemergence, Rate 250 g/ha
  Corn plant response rating (0 to 10 scale): 0
corn; [6]
  Corn plant response rating: 0
morningglory; [7]
  Morningglory plant response rating: 6
morningglory; [1]
  Plant response rating, Morningglory: 10
morningglory; [2]
  Morningglory plant response rating: 10
morningglory; [4]
  Morningglory plant response rating: 0
morningglory; [5]
  Morningglory plant response rating: 0
morningglory; [6]
  Morningglory plant response rating: 4
Sugar beet; [1]
  Plant response rating, Sugarbeets: 0
Sugar beet; [2]
  Sugarbeets plant response rating: 0
Sugar beet; [3]
  Plant response rating, Sugarbeets: 0
Sugar beet; [4]
  Sugarbeets plant response rating: 0
Sugar beet; [5]
  Sugarbeets plant response rating: 0
Sugar beet; [6]
  Sugarbeets plant response rating: 8
Wild oat; [1]
  Plant response rating, Wild oats: 0
Wild oat; [2]
  Wild oats plant response rating: 0
Wild oat; [3]
  Plant response rating, Wild oats: 0
Wild oat; [4]
  Wild oats plant response rating: 0
Wild oat; [5]
  Wild oats plant response rating: 3
Wild oat; [6]
  Wild oats plant response rating: 10
crabgrass; [7]
  Crabgrass plant response rating: 2
crabgrass; [1]
  Plant response rating, Crabgrass: 3
crabgrass; [2]
  Crabgrass plant response rating: 8
crabgrass; [3]
  Plant response rating, Crabgrass: 9
crabgrass; [4]
  Crabgrass plant response rating: 9
crabgrass; [5]
  Crabgrass plant response rating: 9
crabgrass; [6]
  Crabgrass plant response rating: 10
